# According to US20260193647A1, “MIRNA-BASED CANCER THERAPY WITH A TUMOR-NAVIGATING PEPTIDE” (The Board of Trustees of the Universities of Illinois, priority 2022, published 2026):
# Ends that are not written are not given here.
# Columns and labels:
# SJ-GBM2 cells = assay: cells; settings: Homo sapiens, 24 h, read-out: IC50 (cell viability)
# Procedure: (§1) Cell viability was evaluated by a CCK-8 assay (Dojindo, Japan). Cells were seeded at a density of 4,000 cells per well in 100 μl of growth medium in 96-well plates and grown overnight. Then, the cells were exposed to antisense miR-20a alone, p28 alone or negative control or AmiR20-p28 over a range of concentrations and incubated for 24 hr. According to the manufacturer's instructions, 10 μl of CCK-8 solution was added to each well, followed by incubation for 1 hr at 37° C. The absorbance at 450 nm was determined by a multiplate reader.
# (§2) Cell viability (%)=Abs(sample)−Abs(blank)/Abs(no treatment)−Abs(blank)×100
# miR21 = miR21 expression by qPCR in treated cells; format: cell-based, human
# [1] = human, in vivo; cited from earlier work
# [2] = tested on: SJ-GBM2 cells, CHLA-200 cells and astrocytes; assay: Cellular entry by confocal microscopy; format: cell-based, human; settings: 20 μM Alexa Fluor labeled, 2 hr, 37° C.; pGBM cells vs normal astrocytes
# Procedure: p28 or AmiR20-p28 were dissolved in PBS mixed with Alexa Fluor 568 dye (Invitrogen) at a 1:2 peptide/dye ratio 37. Sodium bicarbonate (pH 8.5) was added and incubated at 4° C. with continuous stirring. Alexa Fluor 568 labeled p28 and AmiR20-p28 were dialyzed against cold-PBS using Slide-A-Lyzer Dialysis Cassettes (Pierce Biotechnology). Similarly, p28 was labeled with ICG as described previously.
# SJ-GBM2 cells, CHLA-200 cells and astrocytes (2×10^4 cells/well) were cultured on glass slides placed in 24-well plates. After overnight culture, the cells were washed with PBS and incubated with 20 μM Alexa Fluor 568-labeled p28 peptide in medium (5% FBS and without phenol red) for 2 hr at 37° C. Cells were fixed with 2% formalin for 10 min. After washing, slides were prepared and mounted with Vectashield with DAPI (Vector Laboratories, Catalog #94010). Slides were examined by an LSM 710 confocal laser scanning microscope (Zeiss). Images were processed using ZEN software (ZEISS ZEN Lite). As for a GSC marker, the slides were first incubated with Alexa Fluor 568-labeled AmiR20-p28 for 2 hr at 37° C. Cells were fixed with 2% formalin for 10 min. After washing, slides were incubated with blocking buffer for 1 hr at room temperature, followed by consecutive staining with anti-CD133 antibody (1:500, R&D Systems FAB11331G). Slides were washed and mounted with Vectashield containing DAPI. […]
# miR-20a = miR-20a expression levels by stem loop qPCR in treated cells; format: cell-based, human; settings: any of the cell lines tested; administered alone, 10 nM, 24 hr
# Text: Micro RNA enriched fraction was extracted using the miRNeasy Mini Kit (Qiagen, Catalog #217004) following the manufacturer's instructions. Stem loop real-time qPCR was used to analyze miRNA expression. We designed miR-20a stem loop RT primers and amplification primers according to a previously described method 79. cDNA was synthesized from extracted RNA using unique stem loop RT primers. The sequence of the stem loop primer for miR-20a was 5′-[…]-3′ (SEQ ID NO:7). Reverse transcriptase reactions contained the following reagents: 10 ng of RNA sample, 60 nM stem-loop RT primer, 1×RT buffer, 0.25 mM dNTP, and 4 U/μl reverse transcriptase. Reactions were performed by incubation at 16° C. for 30 min, 42° C. for 30 min and 85° C. for 5 min. Real-time PCR (7300 Real time PCR Systems, Applied Biosystems, CA) was performed using the specific forward primer for miR-20a (5′-[…]-3′ (SEQ ID NO:8)) and a universal reverse primer (5′-GTGCA GGGTC CGAGGT-3′ (SEQ ID NO:9)). The 20-μl PCR mixture included 1×SYBR Premix (Invitrogen), 2 μl of RT products and each forward and reverse primer at 10 nM. Reactions were performed by incubation in a 96-well plate at 95° C. for 30 sec, followed by 35 cycles of 95° C. for 30 sec and 60° C. for 30 sec. U6 was used as an internal control to normalize the level of target miRNAs. The results were verified by performing PCR using M13 modified forward and reverse primers specific to stem loop sequence. The PCR products were visualized in 2% agarose gels and DNA-sequence was confirmed. Human tumor and serum samples were obtained from patients who had signed informed consent and the institutional review board approval was obtained in Pediatric Brain Tumor Consortium (PBTC-041) participating sites.
# [3] = tested on: SJ-GBM2, CHLA-200, LN-229 and astrocytes; assay: CCK-8 cell viability assay, set of cell lines tested; format: cell-based, human; settings: component alone; 24 hr
# Procedure: as §1, §2
compound,measurement,setting,value
"Cn1nnc2c(C(N)=O)ncn2c1=O [TMZ, temozolomide]",IC50,SJ-GBM2 cells,~600 µM
"AmiR21-p28: cell-penetrating peptide p28 chemically conjugated to antisense-miR21 (LSTAADMQGVVTDGMASGLDKDYLKPDD; also: chemically conjugated to antisense miR-21, site not given here; UniProt P00282 70-97, looked up, fragment)",endogenous miR21,"miR21; pGBM and aGBM cells, Ten nM",significantly reduced the endogenous miR21
p28: CPP derived from Pseudomonas aeruginosa azurin that preferentially enters cancer cells; carrier component tested alone [reference compound],tolerability in patients,[1],"well tolerated without apparent adverse effects, toxicity, or immunogenicity"
same,reduction of miR21,"miR21; any cell lines tested, component alone",did not induce a significant reduction of miR21
same,cellular entry (confocal images),[2],preferentially penetrated
same,inhibitory effect on miR-20a expression,miR-20a,did not have a significant inhibitory effect
same,inhibitory effect on cell viability,[3],"neither p28 nor AmiR20, alone had an inhibitory effect on cell viability"
